Data on 96 molecules can be found in PubChem BioAssay AID2423 (Broad Institute, 2010).

Records with an inconclusive call do not appear. The source made the active and inactive calls. No rule for the calls is given here.

The test system of the test is C. albicans CaCi-8 + fluconazole, Alamar Blue growth, 48 h. Description: resistant C. albicans growth inhibition with fluconazole, dose response, CaCi-8 strain, Alamar Blue fluorescence (AID 2423). On the technique in general: Alamar Blue is a resazurin reagent that responds to reducing activity.
One may read the EC50 as the concentration that produces a half-maximal response. Turning to `CCOc1ccc(-n2c(O)c(/C=N/Nc3nc(C)cc(C)n3)c3ccccc3c2=O)cc1`, the EC50 was > 15000 nM (inactive).

As for `Cc1noc2ncnc(Sc3ccc(Cl)cc3)c12`, the EC50 was 2930 nM.

`Cc1c(CCOC(=O)CC23CC4CC(CC(C4)C2)C3)sc[n+]1Cc1ccccc1`: the EC50 is 10600 nM.

Consider `COc1ccc(-c2cc(C3CCN(Cc4cccc(C(F)(F)F)c4)CC3)[nH]n2)cc1`, for which the EC50 is 8130 nM.

In the case of `COc1ccc(C2c3ccc4ccccc4c3Oc3ncn(CCN4CCOCC4)c(=N)c32)cc1` (stereo unspecified), the EC50 was 1180 nM.

For `O=c1ccc(N=Nc2ccccc2)ccc1O`, the EC50 was 879 nM.

`CCOC(=O)c1ccccc1NC(=O)c1cccc([N+](=O)[O-])c1`: the EC50 is > 15000 nM (inactive).

As for `CCc1ccc(CNC(=O)CCC(=O)N2Cc3cccc(OC)c3Oc3ncccc32)cc1`, the EC50 was > 16000 nM (inactive).

As for `Cc1ccc(C(=O)c2coc3cc([N+](=O)[O-])c(O)c([N+](=O)[O-])c23)cc1`, the EC50 is 1230 nM.

As to `CN1CCN(Cc2cc(COCc3ccccc3)c3cccnc3c2O)CC1`, the EC50 is 1460 nM.

Turning to `CCOC(=O)c1ccc(NC(=O)c2ccc(CO)c(C(=O)NC3CCN(C(=O)OCC)CC3)c2)cc1`, the EC50 is > 16000 nM (inactive).

Regarding `Cc1ccc(-c2nc(-c3cccnc3)no2)c(C)c1`, the EC50 was 10500 nM.

For `Cc1ccc(-n2ncc(Br)c(Br)c2=O)cc1`, the EC50 was 855 nM.

In the case of `Cc1ccc(NC(=S)c2nc3ccccc3[nH]2)cc1`, the EC50 is > 16000 nM (inactive).

As to `CCN(CC)S(=O)(=O)c1cc(OC)ccc1N=Nc1ccc(O)c2ncccc12`, the EC50 is 1560 nM.

In the case of `C=C(C)CNC(=S)N/N=C1\CCCCc2ccccc21`, the EC50 is > 16000 nM (inactive).

For the molecule `O=[N+]([O-])c1cc(Cl)c2cccnc2c1O`, the half-maximal effective concentration (EC50) is 291 nM.

On to `CCc1ccc(OCC(=O)NNC(=S)NC(=O)C2CCCCC2)c(Br)c1`, for which the EC50 is 1790 nM.

Consider `COc1cccc(CN(C(=O)c2cc3ccccc3oc2=O)C2CC2)c1`, for which the EC50 is > 15000 nM (inactive).

With `COC(=O)C1CCN(Cc2c(C(=O)N3C[C@@H](C)O[C@@H](C)C3)nc3ccc(Cl)cn23)CC1`, the EC50 is > 15000 nM (inactive).

Consider `CCCCC(=O)NC(c1ccc(Cl)cc1)c1ccc2cccnc2c1O` (stereo unspecified), for which the EC50 was 502 nM.

Consider `Cc1c(Cl)ccc(S(=O)(=O)Nc2cccnc2)c1Cl`, for which the EC50 is > 15000 nM (inactive).

For the molecule `Cc1cccc(N2CCN(c3nc(C)cc(C)c3C#N)CC2C)c1` (stereo unspecified), the EC50 was > 16000 nM (inactive).

Regarding `CN(C)c1cc[n+](CC(=O)c2ccc(-c3ccccc3)cc2)cc1`, the EC50 is 4980 nM.

`C[C@]12CCC3[C@@H](CC[C@H]4C[C@@H](O)CC[C@]34C)C1CCC2=O` (stereo partly specified): the concentration giving a half-maximal response (EC50) was 1480 nM.

On to `Cc1cc(/C=N/n2c(COc3ccccc3C)nc3ccccc3c2=O)c(O)c([N+](=O)[O-])c1`, for which the EC50 is 1620 nM.

`CCOc1ccccc1NC(=O)C(=O)N/N=C/c1cc(Br)ccc1O`: the concentration for a half-maximal effect (EC50) was 1380 nM.

`Cc1nc2sc(C(c3cccc(F)c3)N3CCCC(C)C3)c(O)n2n1` (stereo unspecified): the EC50 is 798 nM.

Take `O=C(CCS(=O)(=O)c1ccccc1)Nc1nnc(C(F)(F)F)s1`: the EC50 was > 16000 nM (inactive).

As for `S=c1[nH]nc(C2CCCCC2)n1/N=C/c1ccc(Br)s1`, the EC50 was 1940 nM.

On to `COc1cc(C(=O)Oc2c(CN3CCOCC3)cc(Cl)c3cccnc23)cc(OC)c1OC`, for which the EC50 is 2740 nM.

Turning to `O=C(O)c1ccc(NC(=S)NC(=O)c2ccc(-c3ccccc3)cc2)cc1`, the 50% effective concentration (EC50) was 3350 nM.

Regarding `COCCNC(=O)C(c1ccc(C)o1)N(CCOC)C(=O)Cn1nnc2ccccc21` (stereo unspecified), the EC50 was > 15000 nM (inactive).

As to `COCCNC(=O)NC12CC3CC(CC(C3)C1)C2`, the EC50 was > 16000 nM (inactive).

On to `NNC(=S)Nc1cccc(Cl)c1`, for which the EC50 is 8450 nM.

Regarding `Cc1cc(OCC(=O)NNC(=S)NC(=O)c2cccs2)ccc1Cl`, the EC50 is 1660 nM.

Turning to `O=C(NNC1=C(C(=O)C(F)(F)F)CCC1)c1ccc(Br)cc1`, the EC50 was 790 nM.

For the molecule `O=C(Oc1c(Cl)cc(Cl)c2cccnc12)c1cccs1`, the EC50 was 443 nM.

`CN(C(=O)CSc1nnc(-c2ccco2)o1)C1CCCCC1`: the EC50 is 13200 nM.

On to `O=C(CNS(=O)(=O)c1ccc(Br)s1)NCC1COc2ccccc2O1` (stereo unspecified), for which the EC50 is > 15000 nM (inactive).

For `Cc1ccc(Nc2nc(NCc3ccco3)c3ccccc3n2)cc1`, the concentration giving a half-maximal response (EC50) was 2440 nM.

With `Cc1ccc(C)c(SCC(=O)Nc2nnc(-c3ccccc3)o2)c1`, the EC50 was 2240 nM.

In the case of `COc1cccc(C(=O)Nc2nnc(-c3ccc(F)cc3)o2)c1`, the EC50 is 1690 nM.

As for `O=C(Nc1cccc(-c2cn3c(n2)SCC3)c1)c1ccc(Br)o1`, the EC50 was 2710 nM.

For `Cc1ccsc1/C=N/NS(=O)(=O)c1ccc([N+](=O)[O-])cc1`, the EC50 was 7370 nM.

For `CN(Cc1ccccc1)S(=O)(=O)c1ccc(C(=O)Nc2nnc(C3CC3)o2)cc1`, the EC50 was 291 nM.

As for `CC(=O)Nc1ccc(NC(=O)CSc2ccc3nnc(CCNS(=O)(=O)c4ccc(C)cc4)n3n2)cc1`, the EC50 is > 16000 nM (inactive).

In the case of `NC1=NC(=O)C(Cc2cccc(Cl)c2Cl)S1` (stereo unspecified), the EC50 is > 16000 nM (inactive).

As for `CCOC(=O)c1cc([N+](=O)[O-])c([N+](=O)[O-])cc1NC(C)=O`, the EC50 was 692 nM.

Turning to `CCCn1c(Nc2nc3ccccc3n2C)nc2ccccc21`, the EC50 is 1170 nM.

For `CCCc1ccc(OCC(=O)Nc2cc(S(=O)(=O)CC)ccc2O)cc1`, the half-maximal effective concentration (EC50) is 439 nM.

Turning to `O=[N+]([O-])c1ccc(N/N=C/c2ccc(O)c(O)c2O)c(S(=O)(=O)N2CCOCC2)c1`, the EC50 is 8260 nM.

Turning to `Cc1ccccc1C(=O)O/N=C/c1c(N2CCOCC2)n(C)c2ccccc12`, the concentration for a half-maximal effect (EC50) is 593 nM.

`Cc1ccc(C2CC2C(=O)NNC(=S)Nc2cccc(Cl)c2)cc1` (stereo unspecified): the EC50 was 3320 nM.

As to `CCN1/C(=C/c2sc(-c3ccccc3C)c[n+]2C)Sc2ccccc21`, the concentration for a half-maximal effect (EC50) is 289 nM.

Turning to `CCCCCCCNC(=O)COc1ccc2c(c1)C(=O)CC(C)(C)O2`, the 50% effective concentration (EC50) was 1100 nM.

`O=c1c2cc(Br)ccc2nc(-c2ccc([N+](=O)[O-])cc2)n1O`: the EC50 is 1140 nM.

Turning to `Nc1nc(-c2ccccc2)c(N=Nc2ccccc2Cl)s1`, the EC50 is 6250 nM.

Regarding `O=C(NNC(=S)NC(=O)c1ccc(Br)cc1)c1ccc([N+](=O)[O-])cc1`, the EC50 was 416 nM.

As for `Cc1nnc(NC(=O)CSc2ncnc3c2cnn3-c2ccccc2C)s1`, the EC50 is 446 nM.

Consider `CC(C)CCN1C(=O)c2ccc(C(=O)Nc3ccc(Br)cc3C(=O)O)cc2C1=O`, for which the EC50 was 1270 nM.

In the case of `Cc1c(Cl)c([N+](=O)[O-])nn1Cc1ccc(C(=O)N/N=C\c2cc(Cl)ccc2O)o1`, the EC50 is 1030 nM.

For the molecule `Cc1cc([N+](=O)[O-])c2ccccc2[n+]1[O-]`, the EC50 is 195 nM.

Take `CC(C)(C)C1CCC(OC(=O)C[N+]2(C)CCCCC2)CC1` (stereo unspecified): the EC50 was 11300 nM.

For the molecule `CC(=O)N1CCC(=NNC(=O)c2cc3ccccc3cc2O)CC1`, the EC50 was 11900 nM.

As to `O=C(Nc1nc(-c2ccccn2)cs1)c1ccc(Br)s1`, the EC50 was 1000 nM.

As to `C=CCN1C(=O)N/C(=C/c2ccc(N3CCOCC3)o2)C1=O`, the EC50 was 796 nM.

As for `COc1ccc(C2C(C#N)=C(N)Oc3c2ccc2cccnc32)cc1OC` (stereo unspecified), the EC50 was 952 nM.

Take `COc1ccc(-c2n(CC(=O)OC3CC(C)CCC3C(C)C)c3ccccc3[n+]2C)cc1` (stereo unspecified): the EC50 is 365 nM.

Turning to `CCC(=O)NC(c1ccc(OC)cc1)c1cc(Cl)c2cccnc2c1O` (stereo unspecified), the EC50 was 976 nM.

Regarding `NC(=O)c1ccsc1NC(=O)CCS(=O)(=O)c1ccccc1`, the EC50 is 1730 nM.

As for `O=C(N/N=C/c1c(O)ccc2ccccc12)c1cccnc1`, the EC50 is 1430 nM.

Regarding `CC/C(=N/NC(=O)c1ccccc1O)c1c(C)[nH]n(-c2ccccc2)c1=O`, the EC50 is 754 nM.

Regarding `CCN(CC)C(=O)/C(=C/c1ccc2c(c1)OCO2)NC(=O)c1ccc(Br)cc1`, the EC50 is 1200 nM.

On to `CC(c1ccccc1)N1CCn2c(nc3cc(NS(C)(=O)=O)ccc32)C1` (stereo unspecified), for which the EC50 was > 16000 nM (inactive).

Turning to `OCCCNc1cc(-c2ccnc(Nc3cccc(Cl)c3)n2)ccn1`, the concentration for a half-maximal effect (EC50) is 939 nM.

For the molecule `O=C(Cc1ccc(Cl)cc1)NNC(=S)NC(=O)c1cccs1`, the EC50 is 1570 nM.

As to `CCCS(=O)(=O)c1nnnn1-c1cccc(OC)c1`, the EC50 is > 15000 nM (inactive).

On to `COc1cccc(/C=N/Nc2cc(-n3nc(C)cc3-c3ccccc3)ncn2)c1O`, for which the EC50 was 662 nM.

Take `Cc1cccc(Cc2cnc(N3C(=N)SC(C)C3=O)s2)c1` (stereo unspecified): the EC50 was > 16000 nM (inactive).

Regarding `COc1cc(-c2nnc(SCc3cc(=O)oc4cc(O)c(O)cc34)o2)cc(OC)c1OC`, the EC50 is 4390 nM.

For the molecule `CCCCCc1ccc(OCCCC[n+]2ccc(C)cc2)c(CCCCC)c1`, the EC50 is > 16000 nM (inactive).

In the case of `CCOc1ccccc1C1C2=C(COC2=O)Nc2cc3c(cc21)OCO3` (stereo unspecified), the EC50 is > 16000 nM (inactive).

With `Cc1ccnc(NC(c2cccnc2)c2ccc3cccnc3c2O)c1` (stereo unspecified), the EC50 was 13100 nM.

As to `COc1cccc(/C=N/Nc2cc(N3CCOCC3)ncn2)c1O`, the half-maximal effective concentration (EC50) is 6270 nM.

For the molecule `Cc1[nH]n(C(N)=S)c(=O)c1N=Nc1ccc(S(=O)(=O)N2CCCCCC2)cc1`, the EC50 is 9480 nM.

Turning to `O=C(NNC1=C(C(=O)C(F)(F)F)CCC1)c1cccc(Cl)c1`, the EC50 was 1960 nM.

Consider `CCCCOc1cccc(C(=O)NNC(=S)NC2CCCCC2)c1`, for which the EC50 is 8740 nM.

For the molecule `O=C(c1ccc2c(c1)OCO2)N1CCC2(CC1)Oc1ccc(F)cc1C(=O)C21CC(c2cccnc2)=NO1` (stereo unspecified), the EC50 is 402 nM.

For `C=CCN(CC=C)Cc1c(O)ccc2c(=O)c(-c3ccccc3)coc12`, the EC50 was less than 120 nM.

With `O=C(c1ccc(Cn2c(=O)[nH]c3ccccc3c2=O)cc1)N1CCN(c2ccc(F)cc2)CC1`, the EC50 was 3250 nM.

As to `Cc1ccc(Nc2nc(CSc3nnc(-c4ccncc4)n3-c3ccccc3C)cs2)cc1`, the EC50 is > 16000 nM (inactive).

With `O=C(N/N=C/c1sc2ccccc2c1O)c1cccc2ccccc12`, the EC50 was 1580 nM.

For `Cc1ccc2nc(N3C(=O)C(O)=C(C(=O)c4ccco4)C3c3ccc(C)o3)sc2c1` (stereo unspecified), the EC50 was 131 nM.

Regarding `COc1ccccc1NC(=O)CN1CCN(c2ccccc2OC)CC1`, the EC50 is > 16000 nM (inactive).

Consider `CSCCC1NC2(C(=O)Nc3c(C)cc(Cl)cc32)[C@@H]2C(=O)N(C3CCCC3)C(=O)[C@H]12` (stereo partly specified), for which the EC50 was 10100 nM.
